According to ChEMBL document CHEMBL1126445, “Acetylcholine-releasing agents as cognition enhancers. Structure-activity relationships of pyridinyl pendant groups on selected core structures” (1992):

species on record: Rattus norvegicus; experiment: Compound was evaluated for its ability to enhance the release of acetylcholine in vitro by using [3H]choline in rat brain slice superfusion system; type: functional

Structure (SMILES) | Release [%]
O=C1c2cccc3cccc(c23)C1(Cc1ccccn1)Cc1ccccn1 | 40
O=C1N(c2ccccc2)c2ccccc2C1(Cc1cccnc1)Cc1cccnc1 | 38
O=C1CCc2ccccc2C1(Cc1ccccn1)Cc1ccccn1 | 25
C=C1c2cccc3cccc(c23)C1(Cc1cccnc1)Cc1cccnc1 | 21
c1ccc2c(c1)Oc1ccccc1C2(Cc1ccncc1)Cc1ccncc1 | 91
OC1c2cccc3cccc(c23)C1(Cc1ccccn1)Cc1ccccn1 (stereo unspecified) | 53
O=C1N(c2ccccc2)c2ccccc2C1(Cc1ccccn1)Cc1ccccn1 | 22
c1ccc(CC2(Cc3ccccn3)c3ccccc3Oc3ccccc32)nc1 | 24
c1cncc(CC2(Cc3cccnc3)c3ccccc3Oc3ccccc32)c1 | 59
OC1c2cccc3cccc(c23)C1(Cc1ccncc1)Cc1ccncc1 (stereo unspecified) | 15
O=C1c2cccc3cccc(c23)C1(Cc1cccnc1)Cc1cccnc1 | 7
C=C1c2cccc3cccc(c23)C1(Cc1ccncc1)Cc1ccncc1 | 97
OC1c2cccc3cccc(c23)C1(Cc1cccnc1)Cc1cccnc1 (stereo unspecified) | 29
C=C1c2cccc3cccc(c23)C1(Cc1ccccn1)Cc1ccccn1 | 25
O=C1CCc2ccccc2C1(Cc1ccncc1)Cc1ccncc1 | 36
O=C1CCc2ccccc2C1(Cc1cccnc1)Cc1cccnc1 | 11
O=C1c2cccc3cccc(c23)C1(Cc1ccncc1)Cc1ccncc1 | 70
c1ccc2c(c1)Sc1ccccc1C2(Cc1ccncc1)Cc1ccncc1 | 42
c1cncc(CC2(Cc3cccnc3)c3ccccc3Sc3ccccc32)c1 | 79
c1ccc(CC2(Cc3ccccn3)c3ccccc3Sc3ccccc32)nc1 | 47
O=C1N(c2ccccc2)c2ccccc2C1(Cc1ccncc1)Cc1ccncc1 [LINOPIRDINE] | 100
